# Data published in patent US8193200B2, “Antagonists of A2B adenosine receptors for treatment of inflammatory bowel disease” (University of Virginia Patent Foundation, priority 2007, dated 2012).
# Legend:
# [1] = tested on: colonic crypt epithelial cells; test: ki67 proliferation and caspase-3/TUNEL apoptosis staining of colonic crypts, DSS colitis; type: in vivo, mouse
# Method: (§1) Apoptosis: Apoptotic cells were determined in colonic crypts of the mice that received ATL-801. Apoptotic cells were identified by fluorescent double staining using caspase-3 and terminal deoxyuridine nick-end labeling (TUNEL) as a secondary method to detect apoptosis. After deparaffinization and hydration, paraffin sections of colon were retrieved for antigens in a pressure cooker with sodium citrate (pH 6.0, 10 mM) for 10 min. After cooling, the sections were quenched in 3% H2O2 in methanol and then blocked with normal goat serum. Caspase-3 was detected with rabbit anti-cleaved-caspase-3 IgG overnight at 4° C. followed by a labeled streptavidin-biotin (LSAB) staining method consisting of successive application of secondary antibody-streptavidin, biotin-horseradish peroxidase, and cyanine-3 tyramide. TUNEL immunohistochemistry was performed using the in situ cell death detection kit, fluorescein, as described by the manufacturer (Roche Applied Science, Indianapolis, Ind.). For IL-10 model, frozen sections were used to stain cleaved caspase 3 and TUNEL. Nuclei were attained by Hoechst to count total crypt cell number. The apoptotic index for both morphologically defined apoptotic cells and fluorescent staining with caspase-3 was calculated as the number of apoptotic cells per crypt. […]
# [2] = tested on: colonic crypt epithelial cells; test: ki67 proliferation and TUNEL apoptosis staining, IL-10-/- model; type: in vivo, mouse; details: IL-10-/- mice, piroxicam+ATL-801
# Method: as §1
# IL-6 and MIP-2 mRNA = test: Real time PCR of proinflammatory cytokine mRNA in colonic tissue, DSS model; type: in vivo, mouse
# Method: In the DSS-model proinflammatory cytokines were measured by real time PCR. Total RNA was extracted from DSS treated, DSS+ATL-801 and control colonic tissue using the TRizol reagent. After quantification, a reverse transcription (RT) reaction was performed with 2 μg of each sample and oligo-dT primer, using the SuperScript First strand synthesis system for RT-PCR (Invitrogen, CA). The real-time iCycler sequence detection system (Bio-Rad) was used for the real-time RT-PCR. […] The 36B4 expression levels were used as reference, and fold-induction was calculated using a standard curve. For graphical representation of quantitative PCR data, raw cycle threshold values (Ct values) obtained for treated mice were deducted from the Ct value obtained for internal 36B4 transcript levels, using the Ct method as follows: ΔΔCT=(Ct Target−Ct 36B4)treatment−(Ct Target−Ct 36B4) no treatment, and the final data were derived from 2^−ΔΔCT. […] In IL-10−/− model proinflammatory cytokines were measured by ELISA in organ cultures. […] Supernatants were harvested after 24 hours, centrifuged and stored at −80° C. before IL-6 and keratinocyte derived chemokine, KC levels were measured by ELISA. […] IL-8 was measured in the supernatants by ELISA.
# A2b receptor = biological target: T1, A2b receptor (Mus musculus, UniProt Q60614); test: Ussing chamber Isc (chloride secretion) in murine colonic mucosal stripping; details: mouse colonic mucosa
# T1 construct: Murine colonic mucosal stripping from the distal colon was mounted on Ussing chamber; from tissue; host or cells: mouse distal colon mucosa, stripped of external muscle
# T1 sequence (Q60614 1-332): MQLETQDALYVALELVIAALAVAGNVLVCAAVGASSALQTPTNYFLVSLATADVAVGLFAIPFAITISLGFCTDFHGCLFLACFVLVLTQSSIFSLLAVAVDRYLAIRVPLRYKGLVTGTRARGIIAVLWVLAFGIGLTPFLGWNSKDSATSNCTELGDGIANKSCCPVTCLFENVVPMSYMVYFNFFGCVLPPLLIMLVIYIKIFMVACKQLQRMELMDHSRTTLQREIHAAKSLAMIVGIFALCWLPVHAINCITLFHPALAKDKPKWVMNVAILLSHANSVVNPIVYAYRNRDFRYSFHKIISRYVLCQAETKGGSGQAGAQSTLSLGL
# Method: Electrophysiologic studies were performed as described previously Mice were euthanized by CO2/hypothermia. The colon was removed and opened along the mesenteric border. The colon was then stripped of its external muscle by blunt dissection. A of mucosa from distal colon was used for Using chamber studies. After a sustained baseline Isc, mucosal layers were stimulated with adenosine (100 μM) and forskolin (FSK 10 μM). Antagonist was added to both bathing solutions before stimulating with adenosine.
compound,measurement,setting,value
CCCn1c(=O)n(C2CC2)c(=O)c2[nH]c(-c3ccc(N(CC)C(=O)c4cccnc4)nc3)nc21 [ATL-801],"proliferation index, ki67 positive cells","[1]; DSS+ATL, average positive cells per crypt, control 18.67±1.62, DSS 5.95±0.31",15.13±0.44
same,TUNEL positive cells out of total number of cells counted in each crypt,"[1]; DSS+ATL-801, DSS 16.3±2.3",3.7±0.7
same,TUNEL positive cells out of total (around 500) number of cells counted in each crypt,"[2]; control 4.7±1.5, piroxicam 4.3±2.3",10±1.0
same,"proliferation index, ki67 positive staining","[2]; control 8.0±0.7, piroxicam alone 28.8±2.8",18.5±1.4
same,IL-6 mRNA in colonic mucosal tissue,"IL-6 and MIP-2 mRNA; DSS + antagonist, normalized to 36B4, DSS 7.2±1.7",1.8±0.7 fold increase compared to untreated
same,MIP-2 mRNA levels,"IL-6 and MIP-2 mRNA; DSS+ATL-801, fold increase over control (FIG. 5B), DSS 28.1±3.8",13.62±3.0
same,"ΔIsc, ATL-801+Adenosine","A2b receptor; ATL-801 100 μM before adenosine 100 μM, adenosine alone 7.9 μA",1.9 μA
same,"ΔIsc, ATL-801+FSK","A2b receptor; ATL-801 100 μM, forskolin 10 μM",10 μA
